Measured values: patent US9952300B2, “Dynamic contrast enhanced MRI method and agents for the assessment of the macromolecular transport within pathologic tissues” (BRACCO IMAGING S.P.A., priority 2012, dated 2018)
Where “and” joins values, the source holds several entries; their conditions need not be identical. Equal values may be shown once.

Legend:
Human Serum Albumin [1] = biological target: T1, Human Serum Albumin (Homo sapiens, UniProt P02768); conditions: literature; cited from earlier work
Human Serum Albumin [2] = biological target: T1, Human Serum Albumin; assay: Binding (%) of the paramagnetic complex to human serum proteins/albumin by centrifugal ultrafiltration; type: in vitro ADME; set-up: purchased Nycomed Phama; host or cells: Seronorm Human, reconstituted (lyophilised) human serum
Excerpt: Preferred albumin binding agents according to the invention include paramagnetic contrast agents having molecular weight lower than 5,000 Da, preferably lower that 3,000 Da and, more preferably, comprised from 800 to 3,000 Da, that further display an in-vivo non-covalent protein binding with the Human Serum Albumin (or HSA, or albumin, as herein used interchangeably) equal to or higher that 85%, preferably higher than 90% and, more preferably, higher than 95%, expressed in terms of % of the agent amount that is non-covalently bound to serum albumin, measured by centrifugal ultrafiltration (Centrifree®) from a 0.5 mM solution of the agent in Seronorm® incubated at 37° C., according to the procedure disclosed, for instance, in Invest.Radiol. 2006, 41: 279-291; Whitlam J B, Brown K F. Ultrafiltration in serum protein binding determinations. J.Pharm.Sci. 1981; 70:146-150, and in the Example 2 of the Experimental section.
The binding (%) has been determined by with the method of the centrifugal ultrafiltration as described in: Whitlam J B, Brown K F Ultrafiltration in serum protein binding determination. J. Pharm Sci. 1981; 70:146-150; Bowers W F, Fulton S, thompson J. Ultrafiltration vs equilibrium dialysis for determination of free fraction. […]
The albumin serum protein binding was analysed in a human serum solution (Seronorm Human, Nycomed Phama) where each complex was added at a concentration of Gd(III) ion of 0.5 mM. […] The percent of Gd(III)-complex bound (% B) was determined by equation: % B=[(Ct−Cf)/Ct]*100 where Ct is the total amount of Gd(III) in the incubated solution and Cf is the free Gd(III) complex found in the permeate solution. The average bound fraction was assessed from ultrafiltration experiments carried out in triplicate. […]
The above solution (0.300 mL) was added to 15 mL of reconstituted human serum. […] The protein free permeate solution (0.4 mL) was collected and Cf was measured by ICP-MS analysis. […]
From obtained Cf values the percent of bound Gd-complex was determined by application of the following equation % B=[(Ct−Cf)/Ct]*100 where Ct is 0.460 mM (S.D.: 0.015). […]

[3] = tested on: A431 human epidermoid carcinoma xenografts; assay: Fluorescence microscopy of Cy5-CTX distribution in A431 xenografts after PTX or vehicle (Example 5); type: in vivo, NCR athymic nude mice
Description: Cy5-CTX: The fluorescently labeled monoclonal Antibody (mAb) was prepared in house, by conjugating the monoclonal antibody (3.51 mg/mL in citrate-TEA buffer, obtained by buffer exchange from the commercial glycine solution of the mAb) with the commercially available fluorescent cyanine Cy5-NHS ester by using typical and well experienced procedures known in the art. Molar ratio dye/mAb in the conjugated product=2. Albumin-Fluoresceinisothiocyanate: (Albumin-FITC, by Sigma-Aldrich, 10 mg/mL solution). Optical Imaging Protocol […]
Forty-five histological images were acquired, corresponding to approximately 3 sections per tumor. Each image consisted in a stack of two channels corresponding to the fluorescence signal obtained from the dye Cyanine 5 (Cy5) and Fluorescein isothiocyanate (FITC).
The spatial distribution of the Cy5-CTX staining was analyzed calculating for each pixel its distance from the nearest vessel wall using FITC-Alb images (Distance Map FIG. 9 panel c). In the corresponding Cy5-CTX image, the Cy5-CTX signal was then expressed as a function of the pixel distance from the vessel wall (CTX decay curve). […]
Fluorescent CTX decay curves were measured for each tumor section acquired by fluorescence microscopy over distances ranging from 0 to about 700 μm from the nearest vessel wall. […]

T1 sequence (P02768 25-609): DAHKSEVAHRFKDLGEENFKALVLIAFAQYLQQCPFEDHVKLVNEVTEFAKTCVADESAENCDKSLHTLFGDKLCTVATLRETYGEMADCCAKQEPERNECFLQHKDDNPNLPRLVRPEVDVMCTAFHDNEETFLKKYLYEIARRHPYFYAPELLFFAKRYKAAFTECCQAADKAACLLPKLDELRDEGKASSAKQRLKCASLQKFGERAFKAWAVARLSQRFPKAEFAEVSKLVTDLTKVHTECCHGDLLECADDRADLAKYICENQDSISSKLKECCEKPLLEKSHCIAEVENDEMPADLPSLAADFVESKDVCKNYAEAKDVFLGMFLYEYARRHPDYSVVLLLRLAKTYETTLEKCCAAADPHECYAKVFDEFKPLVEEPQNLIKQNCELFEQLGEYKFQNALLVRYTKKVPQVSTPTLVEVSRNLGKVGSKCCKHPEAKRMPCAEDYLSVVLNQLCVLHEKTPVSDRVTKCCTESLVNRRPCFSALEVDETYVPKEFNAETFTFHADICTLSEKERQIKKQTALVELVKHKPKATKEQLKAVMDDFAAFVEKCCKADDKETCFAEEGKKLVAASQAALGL

Row | Average Gd(III), Cf (free Gd(III) complex in the permeate solution) (Human Serum Albumin [2]; 0.5 mM Gd(III) complex in Seronorm human serum, 10 min at 37° C., 30 KDa MWCO ultrafiltration, per permeate A, B, C, trisodium salt) | % B, Average (Human Serum Albumin [2]; 0.5 mM complex in human serum, 37° C., average of triplicate) | % B (percent of Gd(III)-complex bound to serum proteins) (Human Serum Albumin [2]; 0.5 mM complex in human serum, 37° C., single ultrafiltrations, trisodium salt) | Structure (SMILES) | non-covalent binding with Human Serum Albumin (Human Serum Albumin [1]) | Cy5-CTX fluorescence (fAUC), treated versus untreated tumors ([3]; between 400 and about 700 μm from the nearest vessel wall) | Cy5-CTX fAUC, treated versus untreated tumors ([3]; whole tested range from 0 to 700 μm)
1 | 0.016 mM and 0.011 mM and 0.012 mM | 97.19% | 96.52% and 97.65% and 97.39% | C[C@H](CCC(=O)[O-])[C@H]1CC[C@H]2[C@@H]3CC[C@@H]4C[C@@H](NC(=O)CC[C@@H](C(=O)[O-])N(CCN(CC(=O)[O-])CC(=O)[O-])CCN(CC(=O)[O-])CC(=O)[O-])CC[C@]4(C)[C@H]3C[C@H](O)[C@]12C.[Gd+3].[Na+].[Na+].[Na+] [B22956/1, Gadocoletic acid trisodium salt] | about 95% |  | 
2 |  |  |  | CC(=O)O[C@H]1C(=O)[C@@]2(C)[C@H]([C@H](OC(=O)c3ccccc3)[C@]3(O)C[C@H](OC(=O)[C@H](O)[C@@H](NC(=O)c4ccccc4)c4ccccc4)C(C)=C1C3(C)C)[C@]1(OC(C)=O)CO[C@@H]1C[C@@H]2O [PTX, Paclitaxel] |  | higher fluorescence | No differences
